Data on six compounds can be found in article PMC8873473, “Antidiabetic, antioxidant, and anti-obesity effects of phenylthio-ethyl benzoate derivatives, and molecular docking study regarding α-amylase enzyme” (Scientific Reports, 2022).

The term IC50 denotes the point on the concentration scale where inhibition reaches its midpoint.

The target of assay [1] is T1, porcine pancreatic lipase enzyme (Sus scrofa, UniProt P00591).
T1 construct: purchased Frutarom (UK)
T1 sequence (P00591 1-450): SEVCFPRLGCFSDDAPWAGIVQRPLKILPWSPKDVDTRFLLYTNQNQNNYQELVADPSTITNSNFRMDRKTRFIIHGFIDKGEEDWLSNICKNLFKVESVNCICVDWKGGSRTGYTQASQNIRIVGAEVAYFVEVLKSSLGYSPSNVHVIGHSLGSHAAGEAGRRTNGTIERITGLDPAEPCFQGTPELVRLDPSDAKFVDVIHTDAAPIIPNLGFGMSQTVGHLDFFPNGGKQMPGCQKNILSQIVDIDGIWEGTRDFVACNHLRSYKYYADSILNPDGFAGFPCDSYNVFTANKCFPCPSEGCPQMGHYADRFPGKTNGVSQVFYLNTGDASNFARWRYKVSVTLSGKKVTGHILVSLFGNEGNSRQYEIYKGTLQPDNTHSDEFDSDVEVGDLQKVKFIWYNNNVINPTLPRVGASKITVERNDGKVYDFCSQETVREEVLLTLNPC
Put plainly: Porcine pancreatic lipase inhibition (p-nitrophenyl butyrate hydrolysis). Type of assay: biochemical. The settings on record: read-out: Anti-lipase activity IC50 (converted). The method, then:
The lipase inhibitory activity was conducted by following the method in the references with minor modifications[19]–[21]. The prepared synthesized compounds solutions (1 mg/ml) were diluted with 10% DMSO to produce five different dilutions (0.2, 0.4, 0.6, 0.8, and 1 mg/ml). […] A Tris–HCl buffer was used to zero UV–Vis spectrophotometer at 405 nm.
The hydrolysis of p-nitrophenyl butyrate to p-nitrophenyl was used to measure the influence of the synthetic acid esters on the porcine pancreatic lipase enzyme.

Assay [2] in a line: β-Carotene linoleic acid antioxidant test. The settings on record: concentration 0.2 mg/ml; for Absorbance in β-carotene linoleic acid test: after 75 min, 470 nm; for Antioxidant efficiency in β-carotene linoleic acid test: compared with water (control) and α-tocopherol. The method, then: The activity of the synthesized compounds was assessed via performing a modified assay of Gazzani and Miller[17]. The method was based on the coupled oxidation of β-carotene and linoleic acid emulsion. The bleaching mechanism of β-carotene is produced from the hydro-peroxides created from linoleic acid[18]. During the oxidation process, the characteristic orange color of β-carotene and the chromophore will be lost. The presence of antioxidants can hinder the extent of the β-carotene bleaching. Briefly, 1 mg of β-carotene was dissolved in 2 ml of chloroform, 20 mg of linoleic acid, and 200 mg of Tween 20. A rotary evaporator entirely vaporized chloroform at a temperature of less than 30 °C under reduced pressure. Then 200 ml of distilled water saturated with oxygen was added to the flask, which was shaken vigorously for 30 min. A sample (5 ml) of the prepared emulsion was transferred to a series of tubes containing 0.1 ml of the synthesized compounds or tocopherol (2 mg/ml).
The control sample was prepared in the same way but without added antioxidants. Each sample type was prepared in triplicate. The samples were inserted in a water bath at 50 °C for 2 h. The absorbance of the samples was measured using a spectrophotometer at a wavelength of 470 nm, immediately after the preparation of the samples, and at 15-min intervals until the end (t = 120 min) of the experiment.

Assay [3] concerns the target α-glucosidase. Put plainly: α-Glucosidase (α-glycosidase) inhibitory activity, PNPG substrate. It counts as biochemical. The settings on record: mean ± SD, triplicates. The method, then: The inhibition of α-glucosidase activity by the synthesized molecules was measured. The α-glucosidase inhibitory activity is expressed as percentages of inhibition, which was calculated using the following formula: Inhibitoryeffect%=Ab-As/Ab∗100% where Ab and As are the absorbance values of the blank (containing PBS, α-glucosidase, and PNPG, the colored substrate of glucosidase) and the tested samples containing PBS, samples, α-glycosidase, and PNPG, respectively. The α-glucosidase activity was measured using 10 and 20 mg/ml of the synthesized molecules. Each concentration was recorded by using […] PNPG. The inhibitory pattern was assessed using a Lineweaver–Burk plot. The constant Ki of enzyme inhibitory effect was determined.

Assay [4] concerns the target T2, porcine pancreatic amylase (Sus scrofa, UniProt P00690).
T2 construct: purchased Frutarom (UK)
T2 sequence (P00690 16-511): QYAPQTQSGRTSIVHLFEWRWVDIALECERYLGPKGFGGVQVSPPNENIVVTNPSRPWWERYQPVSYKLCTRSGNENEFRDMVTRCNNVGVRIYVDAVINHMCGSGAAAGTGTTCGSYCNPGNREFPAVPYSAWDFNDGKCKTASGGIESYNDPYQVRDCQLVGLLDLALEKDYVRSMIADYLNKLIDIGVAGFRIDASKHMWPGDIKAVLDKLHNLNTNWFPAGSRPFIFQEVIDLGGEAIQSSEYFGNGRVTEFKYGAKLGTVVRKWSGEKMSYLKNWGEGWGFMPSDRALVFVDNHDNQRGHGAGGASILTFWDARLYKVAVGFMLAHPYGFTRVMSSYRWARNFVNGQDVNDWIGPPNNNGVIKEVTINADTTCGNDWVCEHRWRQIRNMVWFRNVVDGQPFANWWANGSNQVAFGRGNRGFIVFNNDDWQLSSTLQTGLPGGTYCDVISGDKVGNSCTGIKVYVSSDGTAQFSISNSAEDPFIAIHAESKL
Put plainly: α-Amylase inhibitory activity. Type of assay: biochemical. The settings on record: mean ± SD, triplicates; read-out: α-Amylase enzyme IC50 (converted). The method, then: The α-amylase inhibitory evaluation was established following the Wickramaratne et al. procedure[13] with minor changes. Working solutions with concentrations of 10, 50, 100, 500, and 1000 µg/ml were produced from our synthesized compounds, diluting them with a buffer of Na2HPO4/NaH2PO4 (0.02 M), NaCl (0.006 M) at pH 6.9 and then brined up to 10 ml using a 10 ml volumetric flask. […] As percent inhibition, the enzyme inhibitory potential was expressed, and the following equation was utilized to estimate the IC50 dose for the samples[14]. %a-AmylaseInhibiton=Abs100%control-AbsSample/Abs100%Control×100

Assay [5] is described as follows: DPPH free radical scavenging test. The settings on record: 517 nm, 30 min incubation. The method, then: Four synthetic compounds were tested for the efficiency of scavenging free radicals matched with trolox and gallic acid as a basic. From the compounds, 1 mg/ml concentration solutions in methanol were prepared, and the solutions were used to prepare concentrations of 5, 10, 20, 30, 40, and 50 μg/ml. The DPPH reagent (0.002% w/v) was dissolved in methanol before mixed with working concentrations in ratios of 1:1:1 (compound:DPPH:methanol). The methanol solution was adopted as a blank. All the solutions were incubated for 30 min at room temperature in the dark. When the antioxidant compound reacts with DPPH, which can donate hydrogen, it is reduced the color changes from deep violet to light. Absorbance values were estimated by using a UV–Vis spectrophotometer at a wavelength of 517 nm. The DPPH inhibition percentage of all tested compound, trolox and gallic acid, was estimated according to the formula: Inhibitionpercentage=Ab-As/Ab×100%, where Ab is blank absorbance, and AS is sample absorbance. The IC50 values for tested synthetic compounds, trolox and gallic acid were determined from the curves.
(In general: Loss of DPPH colour is used to gauge radical scavenging.)

On to `O=C(OCCSc1ccccc1)c1ccccc1` [Compound 2a], for which the results for the IC50 in assay [1] and in assay [4] were 418 µM and 13.8 µM, respectively. Moreover, the “Absorbance in β-carotene linoleic acid test” value in assay [2] is given as 1.04. Moreover, the “Antioxidant efficiency in β-carotene linoleic acid test” value in assay [2] is “higher antioxidant efficiency”. For the same compound, in assay [3], the “α-Glycosidase enzyme IC50” value was found to be 10.09 ± 0.70 µg/mL. Also, the “Antioxidant activity IC50, DPPH test” value in assay [5] came to 47.01 ± 1.07 µg/mL.

With `O=C(OCCSc1ccccc1)c1ccccc1O` [Compound 2b], in assay [2], the “Absorbance in β-carotene linoleic acid test” value worked out at 0.84 and the “Antioxidant efficiency in β-carotene linoleic acid test” value is reported as “higher antioxidant efficiency”. The “α-Glycosidase enzyme IC50” value in assay [3] is 89.95 ± 0.49 µg/mL. The IC50 in assay [4] was 45.3 µM.

Turning to `O=C(OCCSc1ccccc1)c1cccc(O)c1` [Compound 2c], the IC50 in assay [1] is 1240 µM; in assay [4], 71.3 µM. For the same compound, the “α-Glycosidase enzyme IC50” value in assay [3] was found to be 78.1 ± 0.76 µg/mL.

Consider `O=C(OCCSc1ccccc1)c1ccc(O)cc1` [Compound 2d], for which the IC50 in assay [1] is 434 µM; in assay [4], 48.9 µM. Further, the “α-Glycosidase enzyme IC50” value in assay [3] was determined as 114.17 ± 1.04 µg/mL.

For `O=C(O)c1cc(O)c(O)c(O)c1` [Gallic acid, gallic acid], the “Antioxidant activity IC50, DPPH test” value in assay [5] is 31.72 ± 1.22 µg/mL.

As for `Cc1c(C)c2c(c(C)c1O)CC[C@@](C)(C(=O)O)O2` [Trolox, (S)-(–)-6 hydroxy-2,5,7,8-tetramethychroman-2-carboxylic acid], the “Antioxidant activity IC50, DPPH test” value in assay [5] was 4.28 ± 0.47 µg/mL.
